Assay results: paper PMC9977316, “The kidney drug transporter OAT1 regulates gut microbiome–dependent host metabolism” (JCI Insight, 2023)
“Also recorded” adds a separate entry of the source. Structures can show the parent of a compound that is named as a salt.

What was measured:
[1] = target: T1, OAT1 (Mus musculus, UniProt Q8VC69); experiment: Serum metabolomics, effect of genotype (Oat1-KO versus WT), 2-way ANOVA; assay type: in vivo; settings: for interaction between genotype and treatment on serum level: 2-way ANOVA, loss of Oat1 x microbiome depletion; for effect of genotype on serum level: statistical analysis of the serum metabolome
T1 construct: from tissue; host or cells: living mice (kidney proximal tubule); Oat1-KO versus WT
T1 sequence (Q8VC69 1-545): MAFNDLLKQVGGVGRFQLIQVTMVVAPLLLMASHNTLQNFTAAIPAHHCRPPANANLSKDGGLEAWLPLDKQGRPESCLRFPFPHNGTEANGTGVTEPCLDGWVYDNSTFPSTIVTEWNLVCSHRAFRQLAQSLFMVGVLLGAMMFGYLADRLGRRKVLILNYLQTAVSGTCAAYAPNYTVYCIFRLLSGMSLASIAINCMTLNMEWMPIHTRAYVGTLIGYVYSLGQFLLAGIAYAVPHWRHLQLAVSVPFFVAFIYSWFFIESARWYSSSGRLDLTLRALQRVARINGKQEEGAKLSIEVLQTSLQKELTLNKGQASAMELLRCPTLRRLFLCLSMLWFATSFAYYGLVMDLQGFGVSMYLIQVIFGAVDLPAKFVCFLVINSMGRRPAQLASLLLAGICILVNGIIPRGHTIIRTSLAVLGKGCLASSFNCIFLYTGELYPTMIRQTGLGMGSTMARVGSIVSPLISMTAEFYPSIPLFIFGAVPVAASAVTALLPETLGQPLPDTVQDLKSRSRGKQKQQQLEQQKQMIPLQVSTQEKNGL
Experimental: Adult male KO and WT mice were housed in a 12-hour light-dark cycle and allowed ad libitum access to food and water. Oat1-KO mice were generated and maintained as previously described ([49]). Feces were collected from mice weekly in sterile 2 mL centrifuge tubes, flash frozen, and stored at –80°C. Animals were sacrificed by CO2 inhalation, and blood samples were extracted from mice by cardiac puncture. Serum was extracted, and samples were flash frozen and stored at –80°C until further analysis.
Serum samples were shipped on dry ice to Metabolon Inc. for preparation and metabolomics. Per Metabolon Inc., proteins were removed from the serum and 5 fractions were generated for different mass spectrometry methods. […] Peaks were identified and associated with defined compounds based on retention time, mass/charge ratio, and MS/MS spectral data. Quantification of peaks was performed using AUC.
Scaled intensity for each metabolite was normalized to volume, and missing values were imputed with the lowest value for the compound. For all fold-change calculations, scaled intensities were averaged and compared with each other. Statistical comparisons were performed using the Python module, statsmodels (https://www.statsmodels.org/stable/index.html) and were made between groups by 2-way ANOVA following log transformation and FDR correction, with P < 0.05 being considered significant. Enrichment for each superpathway and subpathway was calculated using the number of total metabolites measured and the number of metabolites in each respective superpathway and subpathway, as previously described ([16]).

[2] = system: OAT1; settings: cited from earlier work; for Decreased in urine of probenecid-treated humans / Elevated in plasma of probenecid-treated humans: before vs 5 hours after oral probenecid
[3] = target: T2, OAT1 (Homo sapiens, UniProt Q4U2R8); experiment: In vitro OAT1 transport assay (inhibition of 6-carboxyfluorescein uptake); assay type: cell-based; design: host or cells: HEK (HEK293) cells stably overexpressing human OAT1; settings: for In vitro cell–based transport assay: this work
T2 sequence (Q4U2R8 1-563): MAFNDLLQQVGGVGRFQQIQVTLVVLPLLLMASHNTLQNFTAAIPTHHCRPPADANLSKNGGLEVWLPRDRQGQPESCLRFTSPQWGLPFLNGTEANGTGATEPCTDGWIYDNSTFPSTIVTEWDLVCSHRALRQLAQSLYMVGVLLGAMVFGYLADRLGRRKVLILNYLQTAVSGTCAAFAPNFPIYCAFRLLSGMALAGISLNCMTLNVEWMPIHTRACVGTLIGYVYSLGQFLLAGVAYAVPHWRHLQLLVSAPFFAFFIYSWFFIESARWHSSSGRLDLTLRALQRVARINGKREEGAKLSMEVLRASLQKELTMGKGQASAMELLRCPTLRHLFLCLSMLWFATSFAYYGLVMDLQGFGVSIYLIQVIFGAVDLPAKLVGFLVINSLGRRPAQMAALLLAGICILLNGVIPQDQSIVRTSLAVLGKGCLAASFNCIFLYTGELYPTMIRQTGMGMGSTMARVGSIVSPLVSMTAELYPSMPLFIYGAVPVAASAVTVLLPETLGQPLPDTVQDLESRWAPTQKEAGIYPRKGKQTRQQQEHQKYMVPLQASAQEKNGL
Experimental: Human embryonic kidney (HEK) cells stably overexpressing human OAT1 (SOLVO Biotechnology) were used for in vitro inhibition assays. […] Prior to functional assays, cells were plated in 96-well plates and grown for 24 hours or until confluent in media without blasticidin. Metabolites were added at either 1 mM or 2 mM, and serial dilution was performed down all columns. A fixed concentration of 10 μM 6-carboxyfluorescein (6-CF) was introduced to each well for 10 minutes. Cells were rinsed 3 times in ice-cold PBS, and the fluorescence was measured using a fluorescence plate reader. IC50 values were calculated using GraphPad Prism 9. Controls were carried out using probenecid, an established inhibitor of OAT1 function.

[4] = direction of serum change by loss of Oat1 and by microbiome depletion

Compound: 3-methoxycatechol sulfate (2)
- Status [1, 4]: Group 2
- Decreased in urine of probenecid-treated humans [2]: ✓

Compound: OC[C@H]1OC[C@H](O)[C@@H](O)[C@@H]1O [1,5-anhydroglucitol (1,5-AG)]
- Status [1, 4]: Group 1

Compound: Cn1cncc1CC(O)C(=O)O (centres unmarked) [1-methyl-5-imidazolelactate]
- Status [1, 4]: Group 1

Compound: O=C(O)Cc1cccc2cc[nH]c12 [1H-indole-7-acetic acid]
- Status [1, 4]: Group 2

Compound: O=C(O)c1c(O)cccc1O [2,6-dihydroxybenzoic acid]
- Status [1, 4]: Group 2
- Elevated in plasma of probenecid-treated humans [2]: ✓
- Decreased in urine of probenecid-treated humans [2]: ✓

Compound: Cc1ccc(OS(=O)(=O)O)c(N)c1 [2-amino-p-cresol sulfate]
- interaction between genotype and treatment on serum level [1]: impacted by the interaction between the variables
- Status [1, 4]: Group 2

Compound: O=C(O)Cc1ccccc1O [2-hydroxyphenylacetate]
- effect of genotype on serum level [1]: affected by genotype
- IC50 [3]: 39.2 µM
- In vitro cell–based transport assay [3]: × (this work)

Compound: CC(C)C(O)(CC(=O)O)C(=O)O (centres unmarked) [2-isopropylmalate]
- Status [1, 4]: Group 4
- Elevated in plasma of probenecid-treated humans [2]: ✓

Compound: O=C(O)CCCC(=O)C(=O)O [2-oxoadipate]
- Status [1, 4]: Group 4
- Decreased in urine of probenecid-treated humans [2]: ✓

Compound: O=C(O)CCc1ccc(O)cc1 [3-(4-hydroxyphenyl)propionate]
- Status [1, 4]: Group 2

Compound: O=S(=O)(O)Oc1c[nH]c2ccccc12 [3-indoxyl sulfate]
- Elevated in plasma of probenecid-treated humans [2]: ✓
- plasma level in probenecid treated humans [2]: significantly elevated in the plasma
- Decreased in urine of probenecid-treated humans [2]: ✓

Compound: Cn1cncc1C[C@H](N)C(=O)O [3-methylhistidine]
- Status [1, 4]: Group 2

Compound: O=C(O)CCc1ccccc1.O=C(O)CCc1ccccc1 [3-phenylpropionate (hydrocinnamate)]
- Status [1, 4]: Group 4

Compound: C=CCc1ccc(OS(=O)(=O)O)cc1 [4-allylphenol sulfate]
- Status [1, 4]: Group 2
- Decreased in urine of probenecid-treated humans [2]: ✓

Compound: CCc1ccc(OS(=O)(=O)O)cc1 [4-ethylphenyl sulfate]
- Status [1, 4]: Group 2
- Decreased in urine of probenecid-treated humans [2]: ✓
- urine level in probenecid treated humans [2]: significantly decreased in the urine

Compound: O=C(O)/C=C/c1ccc(O)cc1 [4-hydroxycinnamate]
- effect of genotype on serum level [1]: not impacted by either variable
- IC50 [3]: 13.3 µM
- In vitro cell–based transport assay [3]: × (this work)

Compound: COc1ccc(OS(=O)(=O)O)cc1 [4-methoxyphenol sulfate]
- Status [1, 4]: Group 2
- Elevated in plasma of probenecid-treated humans [2]: ✓
- plasma level in probenecid treated humans [2]: elevated in the plasma
- Decreased in urine of probenecid-treated humans [2]: ✓
- urine level in probenecid treated humans [2]: decreased in the urine

Compound: O=C(O)Cc1c[nH]c2ccc(O)cc12 [5-Hydroxyindoleacetate]
- effect of genotype on serum level [1]: not impacted by either variable

Compound: CC(CCC[C@@H](C)[C@H]1CC[C@H]2[C@@H]3[C@H](O)CC4=CC(=O)CC[C@]4(C)[C@H]3CC[C@]12C)C(=O)O (some centres unmarked) [7-HOCA]
- Status [1, 4]: Group 3

Compound: CC(=O)NCCCC[C@H](NC(C)=O)C(=O)O [N2,N6-diacetyllysine]
- Status [1, 4]: Group 3
- Decreased in urine of probenecid-treated humans [2]: ✓

Compound: CC(=O)N[C@@H](CCCCN(C)C)C(=O)O [N2-acetyl,N6,N6-dimethyllysine]
- Status [1, 4]: Group 3
- Decreased in urine of probenecid-treated humans [2]: ✓

Compound: C[N+](C)(C)CCCCC(=O)[O-] [N,N,N-trimethyl-5-aminovalerate]
- Status [1, 4]: Group 2

Compound: C[C@@H](C(=O)O)N(C)C [N,N-dimethylalanine]
- Status [1, 4]: Group 1

Compound: CC(=O)N[C@@H](CCCCNC(N)=O)C(=O)O [N-acetylhomocitrulline]
- Status [1, 4]: Group 3
- Decreased in urine of probenecid-treated humans [2]: ✓

Compound: CC(=O)N[C@@H](CO)C(=O)O [N-acetylserine]
- Status [1, 4]: Group 4

Compound: CN1CCC[C@H]1C(=O)O [N-methylproline]
- Status [1, 4]: Group 4

Compound: O=C1O[C@H]([C@@H](O)CO)C(OS(=O)(=O)O)=C1O [ascorbic acid 3-sulfate*]
- Status [1, 4]: Group 1

Compound: O=S(=O)(O)Oc1ccccc1O [catechol sulfate]
- Status [1, 4]: Group 2
- Decreased in urine of probenecid-treated humans [2]: ✓

Compound: O=C(O)/C=C/c1ccccc1 [cinnamate]
- Status ([1]; mouse, in vivo): Group 4

Compound: C[C@H](CCC(=O)O)[C@H]1CC[C@H]2[C@@H]3CC[C@@H]4C[C@H](O)CC[C@]4(C)[C@H]3C[C@H](O)[C@]12C [deoxycholate]
- interaction between genotype and treatment on serum level [1]: impacted by the interaction between the variables; also recorded: affected by genotype-treatment interaction
- Status [1, 4]: Group 2
- IC50 [3]: 19.2 µM
- In vitro cell–based transport assay [3]: × (this work)

Compound: [H]/N=C(/N)NCC(=O)O [guanidinoacetate]
- Status [1, 4]: Group 3

Compound: COc1cc(CC(=O)O)ccc1OS(=O)(=O)O [homovanillate sulfate]
- Status [1, 4]: Group 2
- Decreased in urine of probenecid-treated humans [2]: ✓

Compound: O=S(=O)(O)Oc1ccc(O)cc1 [hydroquinone sulfate]
- Status [1, 4]: Group 2
- Elevated in plasma of probenecid-treated humans [2]: ✓

Compound: O=C(O)CCc1c[nH]c2ccccc12 [indolepropionate]
- IC50 [3]: 39.2 µM
- In vitro cell–based transport assay [3]: × (this work)

Compound: O=C1Cc2ccccc2N1 [indolin-2-one]
- Status [1, 4]: Group 2
- Elevated in plasma of probenecid-treated humans [2]: ✓
- Decreased in urine of probenecid-treated humans [2]: ✓

Compound: CS(=O)(=O)CC[C@H](N)C(=O)O [methionine sulfone]
- Status [1, 4]: Group 1
- Decreased in urine of probenecid-treated humans [2]: ✓

Compound: Cc1ccc(OS(=O)(=O)O)cc1 [p-cresol sulfate]
- Status [1, 4]: Group 2
- Elevated in plasma of probenecid-treated humans [2]: ✓
- plasma level in probenecid treated humans [2]: significantly elevated in the plasma
- Decreased in urine of probenecid-treated humans [2]: ✓

Compound: O=C(O)CNC(=O)Cc1ccccc1 [phenylacetylglycine]
- Status [1, 4]: Group 2
- Elevated in plasma of probenecid-treated humans [2]: ✓

Compound: O=C(O)CCC(=O)NCCS(=O)(=O)O [succinoyltaurine]
- Status [1, 4]: Group 1
- Decreased in urine of probenecid-treated humans [2]: ✓

Compound: docosahexaenoylcarnitine (C22:6)*
- interaction between genotype and treatment on serum level [1]: impacted by the interaction between the variables
